Results published in patent EP1247803A2, “Indolinone compounds suitable for modulation of protein kinases” (Sugen, Inc., priority 1996, dated 1998).

Legend:
EGFR = molecular target: T1, EGFR (Homo sapiens, UniProt P00533); assay: EGFR ELISA assay (in vitro kinase activity, EGFR captured from A431 cell lysate); type: biochemical; parameters: concentration or dose not given beside the values
T1 construct: Add 7 ug A431 cell lysate per well (EGFR source); endogenous in cells; host or cells: A431
How it was run: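 EGFR from A431 lysate was captured on anti-EGFR antibody-coated plates and preincubated with compounds for 30 min. Autophosphorylation ran 5 min with 3 uM ATP and 5 mM MnCl2 (final), stopped with 20 mM EDTA. Phosphotyrosine was detected by anti-pTyr ELISA with ABTS/H2O2, read at 410 nm.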

MET = MET biochemical kinase assay; parameters: species or system human; concentration or dose not given beside the values
How it was run: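 MET from cell lysates captured on ELISA plates via rabbit anti-MET cytoplasmic-domain antibody; compounds added and kinase reaction run in ATP and divalent-metal buffer. Receptor phosphotyrosine detected with HRP-conjugated anti-phosphotyrosine antibody and TMB colorimetry.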

T1 sequence (P00533 25-1210): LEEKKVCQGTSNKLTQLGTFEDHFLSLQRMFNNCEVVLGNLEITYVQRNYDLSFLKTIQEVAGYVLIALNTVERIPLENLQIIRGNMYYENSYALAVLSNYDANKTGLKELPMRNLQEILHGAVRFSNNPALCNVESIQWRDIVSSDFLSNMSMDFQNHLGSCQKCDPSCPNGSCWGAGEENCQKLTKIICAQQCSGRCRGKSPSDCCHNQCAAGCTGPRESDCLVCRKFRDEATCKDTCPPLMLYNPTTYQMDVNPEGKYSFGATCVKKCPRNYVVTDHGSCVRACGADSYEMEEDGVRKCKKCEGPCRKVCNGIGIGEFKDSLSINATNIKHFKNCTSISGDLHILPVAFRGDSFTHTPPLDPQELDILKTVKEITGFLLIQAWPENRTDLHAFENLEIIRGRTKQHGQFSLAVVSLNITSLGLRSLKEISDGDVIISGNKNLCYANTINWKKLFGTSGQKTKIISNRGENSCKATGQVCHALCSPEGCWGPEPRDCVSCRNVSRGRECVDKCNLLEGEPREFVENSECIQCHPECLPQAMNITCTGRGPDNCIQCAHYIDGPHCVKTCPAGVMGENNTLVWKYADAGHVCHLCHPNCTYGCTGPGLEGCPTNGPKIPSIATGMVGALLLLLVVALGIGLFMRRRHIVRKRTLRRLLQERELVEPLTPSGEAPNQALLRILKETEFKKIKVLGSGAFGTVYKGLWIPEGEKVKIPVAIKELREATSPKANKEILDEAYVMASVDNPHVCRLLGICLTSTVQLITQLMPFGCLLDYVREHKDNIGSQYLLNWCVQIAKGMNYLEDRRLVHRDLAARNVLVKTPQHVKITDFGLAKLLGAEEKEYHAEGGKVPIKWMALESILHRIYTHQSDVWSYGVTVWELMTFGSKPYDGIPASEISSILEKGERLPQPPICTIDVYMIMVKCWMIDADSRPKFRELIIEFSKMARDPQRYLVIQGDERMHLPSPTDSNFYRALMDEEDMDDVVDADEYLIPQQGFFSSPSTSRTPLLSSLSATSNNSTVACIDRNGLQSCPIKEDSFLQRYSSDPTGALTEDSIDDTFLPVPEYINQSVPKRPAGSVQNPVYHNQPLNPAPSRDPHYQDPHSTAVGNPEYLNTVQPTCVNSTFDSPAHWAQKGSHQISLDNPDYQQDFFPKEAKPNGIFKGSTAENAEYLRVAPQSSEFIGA

SMILES | Biochem EGFR %Inhibition (EGFR) [%] | Met Kinase % Inhibition (MET) [%]
Cc1cc(C)c(C=C2C(=O)Nc3ccc(I)cc32)[nH]1 [10721/B08] | 64.0 | 64.5
CCOc1ccccc1C=C1C(=O)Nc2c(Br)cc(Br)cc21 [10717/A02] | 24.3 | 46.1
Cn1cc(Cl)c(C=C2C(=O)Nc3c(Br)cc(Br)cc32)n1 [10721/A03] | 25.5 | 56.2
COc1cc(O)ccc1C=C1C(=O)Nc2ccc(S(=O)(=O)N3CCOCC3)cc21 [10720/F03] | 7.1 | 44.1
CNS(=O)(=O)c1ccc2c(c1)C(=Cc1nc3ccccc3n1C)C(=O)N2 [10721/D02] | 21.5 | 22.5
Cn1c(C=C2C(=O)Nc3c(Br)cc(Br)cc32)nc2ccccc21 [10721/A02] | 17.8 | 41.1
CC(C)(C)c1cc(C=C2C(=O)Nc3c(Br)cc(Br)cc32)cc(Br)c1O [10721/A10] | 31.1 | 68.9
Cc1c(Br)ccc2c1C(=Cc1cccn1C)C(=O)N2 [10717/C04] | 14.4 | 25.0
CNS(=O)(=O)c1ccc2c(c1)C(=Cc1ccc(Cl)s1)C(=O)N2 [10721/D07] | 23.0 | -6.8
O=C1Nc2ccc(S(=O)(=O)N3CCOCC3)cc2C1=Cc1ccccc1O [10720/F05] | -14.2 | 39.8
O=C1Nc2ccc(CCCl)cc2C1=Cc1ccccc1O [10720/G05] | 27.0 | 37.0
CCOc1cc(C=C2C(=O)Nc3ccc(S(=O)(=O)NC)cc32)ccc1O [10720/D09] | 2.4 | 62.8
COc1cc(O)ccc1C=C1C(=O)Nc2ccc(S(=O)(=O)Nc3ccc(C(F)(F)F)cc3)cc21 [10720/E03] | 54.4 | 54.9
CNS(=O)(=O)c1ccc2c(c1)C(=Cc1ccc(OC)c(OC)c1)C(=O)N2 [10720/D04] | -7.7 | 23.6
O=C1Nc2ccc(S(=O)(=O)Nc3ccc(C(F)(F)F)cc3)cc2C1=Cc1ccccc1 [10720/E06] | 30.1 | 33.1
COc1ccc(O)c(C=C2C(=O)Nc3ccc(S(=O)(=O)Nc4ccc(C(F)(F)F)cc4)cc32)c1 [10720/E10] | 49.1 | 23.1
CNS(=O)(=O)c1ccc2c(c1)C(=Cc1nn(C)cc1Cl)C(=O)N2 [10721/D03] | 11.6 | 19.5
O=C1Nc2ccc(S(=O)(=O)Nc3ccc(C(F)(F)F)cc3)cc2C1=Cc1ccccc1O [10720/E05] | 40.7 | 55.4
O=C1Nc2ccc(CCCl)cc2C1=Cc1ccccc1 [10720/G06] | -10.4 | 21.6
O=C1Nc2c(Br)cc(Br)cc2C1=Cc1cc([N+](=O)[O-])cc(CCl)c1O [10721/A06] | 32.7 | 81.3
CNS(=O)(=O)c1ccc2c(c1)C(=Cc1cc(C)c(C)s1)C(=O)N2 [10721/D04] | 5.0 | 35.3

SMILES | Biochem EGFR %Inhibition (EGFR) [%] | Met Kinase % Inhibition (MET) [%]
O=C1Nc2c(Br)cc(Br)cc2C1=Cc1ccc(Cl)s1 [10721/A07] | 35.2 | 29.7
Cc1[nH]c(C=C2C(=O)Nc3ccc(Br)c(C)c32)c(Br)c1Br [10717/C11] | 67.3 | 71.8
Cc1c(Br)ccc2c1C(=Cc1ccc(Br)cc1)C(=O)N2 [10717/C08] | 24.3 | 27.3
O=C1Nc2c(Br)cc(Br)cc2C1=Cc1cc2c([nH]1)CCCC2 [10721/A05] | 41.4 | 52.9
COc1cccc(O)c1C=C1C(=O)Nc2ccc(Br)c(C)c21 [10717/C10] | 17.5 | 22.8
Cc1cc(C)c(C=C2C(=O)Nc3ccc(Br)c(C)c32)[nH]1 [10721/C08] | 38.3 | 24.8
CSc1ccc(C=C2C(=O)Nc3ccc(CCCl)cc32)s1 [10720/G07] | -8.0 | 12.9
Cc1cc(C=C2C(=O)Nc3c(Br)cc(Br)cc32)sc1C [10721/A04] | 59.0 | 85.0
CNS(=O)(=O)c1ccc2c(c1)C(=Cc1cc(OC)ccc1O)C(=O)N2 [10720/D10] | -10.2 | 51.0
CNS(=O)(=O)c1ccc2c(c1)C(=Cc1[nH]c(C)cc1C)C(=O)N2 [10721/D08] | 31.7 | 45.3
O=C1Nc2ccc(S(=O)(=O)N3CCOCC3)cc2C1=Cc1ncc[nH]1 [10720/F11] | -61.1 | 1.6
CSc1ccc(C=C2C(=O)Nc3ccc(S(=O)(=O)Nc4ccc(C(F)(F)F)cc4)cc32)s1 [10720/E07] | 55.1 | 30.3
Cc1c(Br)ccc2c1C(=Cc1ccc(O)c(C(C)(C)C)c1)C(=O)N2 [10721/C09] | 39.8 | -4.7
COc1ccc(O)c(C=C2C(=O)Nc3ccc(CCCl)cc32)c1 [10720/G10] | 20.4 | 55.9
Cc1c(Br)ccc2c1C(=Cc1ccc(Cl)s1)C(=O)N2 [10721/C07] | 24.6 | 25.7
CC(C)(C)c1cc(C=C2C(=O)Nc3ccc(I)cc32)cc(C(C)(C)C)c1O [10721/B11] | 34.6 | 6.7
O=C1Nc2ccc(I)cc2C1=Cc1cc2c([nH]1)CCCC2 [10721/B05] | 76.8 | 70.8
Cc1ccc(C=C2C(=O)Nc3ccc(Br)c(C)c32)s1 [10717/C07] | 28.7 | 16.5
CC(C)(C)c1cc(C=C2C(=O)Nc3c(Br)cc(Br)cc32)ccc1O [10721/A09] | 28.0 | 23.0
Cc1c(Br)ccc2c1C(=Cc1ccc(F)cc1)C(=O)N2 [10717/C05] | 13.1 | 44.6
COc1cc(O)ccc1C=C1C(=O)Nc2ccc(CCCl)cc21 [10720/G03] | 10.0 | 42.1

SMILES | Biochem EGFR %Inhibition (EGFR) [%] | Met Kinase % Inhibition (MET) [%]
O=C1Nc2ccc(S(=O)(=O)N3CCOCC3)cc2C1=Cc1c(F)cc(F)cc1F [10720/F02] | -19.3 | 17.8
O=C1Nc2ccc(CCCl)cc2C1=Cc1c(F)cc(F)cc1F [10720/G02] | -13.1 | 20.1
CNS(=O)(=O)c1ccc2c(c1)C(=Cc1ncc[nH]1)C(=O)N2 [10720/D11] | -5.5 | 23.9
Cc1c(Br)ccc2c1C(=Cc1nn(C)cc1Cl)C(=O)N2 [10721/C03] | 64.6 | 6.2
Cc1cc(O)cc(O)c1C=C1C(=O)Nc2ccc(CCCl)cc21 [10720/G08] | -9.5 | 26.7
CNS(=O)(=O)c1ccc2c(c1)C(=Cc1ccccc1)C(=O)N2 [10720/D06] | -35.0 | 31.8
O=C1Nc2ccc(S(=O)(=O)Nc3ccc(C(F)(F)F)cc3)cc2C1=Cc1c(F)cc(F)cc1F [10720/E02] | 25.2 | 18.0
COc1ccc(O)c(C=C2C(=O)Nc3ccc(S(=O)(=O)N4CCOCC4)cc32)c1 [10720/F10] | 6.0 | 42.8
CC(C)(C)c1cc(C=C2C(=O)Nc3ccc(I)cc32)ccc1O [10721/B09] | 38.9 | 28.3
CNS(=O)(=O)c1ccc2c(c1)C(=Cc1c(C)cc(O)cc1O)C(=O)N2 [10720/D08] | -13.3 | 42.1
CC(C)(C)c1cc(C=C2C(=O)Nc3ccc(I)cc32)cc(Br)c1O [10721/B10] | 42.9 | 30.4
Cc1c(Br)ccc2c1C(=Cc1cc([N+](=O)[O-])cc(CCl)c1O)C(=O)N2 [10721/C06] | 80.2 | 56.4
Cc1c(Br)ccc2c1C(=Cc1cc3c([nH]1)CCCC3)C(=O)N2 [10721/C05] | 68.1 | 48.7
COc1ccc(C=C2C(=O)Nc3ccc(S(=O)(=O)N4CCOCC4)cc32)cc1OC [10720/F04] | -11.7 | 43.1
COc1ccc(C=C2C(=O)Nc3ccc(S(=O)(=O)Nc4ccc(C(F)(F)F)cc4)cc32)cc1OC [10720/E04] | -2.7 | 46.7
CNS(=O)(=O)c1ccc2c(c1)C(=Cc1ccccc1O)C(=O)N2 [10720/D05] | -24.1 | 9.8
O=C1Nc2ccc(CCCl)cc2C1=Cc1ncc[nH]1 [10720/G11] | -56.7 | 36.2
CNS(=O)(=O)c1ccc2c(c1)C(=Cc1cc3c([nH]1)CCCC3)C(=O)N2 [10721/D05] | 47.0 | 91.9
Cc1c(Br)ccc2c1C(=Cc1cc(Br)c(O)c(C(C)(C)C)c1)C(=O)N2 [10721/C10] | 17.4 | 44.6
